These are literature values, as cited in patent US20100143460A1, “SOLID DOSAGE FORMS COMPRISING ALISKIREN AND PHARMACEUTICALLY ACCEPTABLE SALTS THEREOF” (KRKA, TOVARNA ZDRAVIL, D.D., NOVO MESTO, priority 2007, published 2010).

For this data set the following is noted: described in EP-A-1 517 682.

As to `COCCCOc1cc(C[C@@H](C[C@H](N)[C@@H](O)C[C@H](C(=O)NCC(C)(C)C(N)=O)C(C)C)C(C)C)ccc1OC` [aliskiren], the solubility in water entry is on record as “very readily soluble in water”.
